From patent US7674819B2 (Warner-Lambert Company LLC, priority 2005, dated 2010) come the findings set out here.

For orientation: IC50 means the concentration needed to halve the response being measured.

For one experiment, the target named is T1, hAR (Homo sapiens, UniProt P10275).
T1 sequence (P10275 1-920): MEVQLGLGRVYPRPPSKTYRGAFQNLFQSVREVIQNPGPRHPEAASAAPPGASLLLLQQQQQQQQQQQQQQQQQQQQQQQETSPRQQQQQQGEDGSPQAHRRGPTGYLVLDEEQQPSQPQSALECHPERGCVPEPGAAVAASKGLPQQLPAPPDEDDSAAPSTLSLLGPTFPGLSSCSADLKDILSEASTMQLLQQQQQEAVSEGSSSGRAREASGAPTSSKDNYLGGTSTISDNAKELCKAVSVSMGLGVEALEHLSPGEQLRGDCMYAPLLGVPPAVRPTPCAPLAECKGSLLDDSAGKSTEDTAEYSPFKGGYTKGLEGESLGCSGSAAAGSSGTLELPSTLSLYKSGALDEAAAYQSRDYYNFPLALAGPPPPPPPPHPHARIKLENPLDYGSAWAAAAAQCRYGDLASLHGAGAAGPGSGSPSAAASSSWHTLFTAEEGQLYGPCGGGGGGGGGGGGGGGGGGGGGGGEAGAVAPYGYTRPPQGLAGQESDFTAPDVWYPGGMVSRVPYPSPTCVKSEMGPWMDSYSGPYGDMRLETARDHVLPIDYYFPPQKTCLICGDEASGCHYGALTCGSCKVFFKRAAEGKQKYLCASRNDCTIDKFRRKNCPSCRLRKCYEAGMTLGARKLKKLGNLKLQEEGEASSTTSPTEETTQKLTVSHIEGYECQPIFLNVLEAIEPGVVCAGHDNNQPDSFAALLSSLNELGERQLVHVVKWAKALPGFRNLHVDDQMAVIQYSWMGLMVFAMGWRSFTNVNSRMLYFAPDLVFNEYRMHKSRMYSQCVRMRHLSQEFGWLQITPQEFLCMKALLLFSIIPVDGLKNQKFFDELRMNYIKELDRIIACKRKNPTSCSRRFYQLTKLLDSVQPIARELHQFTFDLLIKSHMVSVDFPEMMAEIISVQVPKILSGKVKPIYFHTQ
The experiment is described as follows: Competitive binding of 3H-DHT to baculovirus/Sf9 generated hAR extracts. The settings on record: IC50, concentration at which one half of maximum binding of 1 nM 3H-DHT to hAR is inhibited; one hour at 4° C.; mean of multiple tests. How it is done:
The description below describes how the assay was carried out.
Competitive binding analysis was performed on baculovirus/Sf9 generated hAR extracts in the presence or absence of different concentrations of test agent and a fixed concentration of ^3H-dihydrotestosterone (^3H-DHT) as tracer. This binding assay method is a modification of a protocol previously described (Liao S., et. al. J. Steroid Biochem. 20:11-17 1984). Briefly, progressively decreasing concentrations of compounds are incubated in the presence of hAR extract (Chang et al. P.N.A.S. Vol. 89, pp. […], 1992), hydroxylapatite, and 1 nM^3H-DHT for one hour at 4° C. Subsequently, the binding reactions are washed three times to completely remove excess unbound ^3H-DHT. hAR bound ^3H-DHT levels are determined in the presence of compounds (i.e. competitive binding) and compared to levels bound when no competitor is present (i.e. maximum binding). Compound binding affinity to the hAR is expressed as the concentration of compound at which one half of the maximum binding is inhibited.
Regarding `COc1ccc(-c2nnc(C(C)N3CC(C)(C)C(Oc4ccc(C#N)c(C(F)(F)F)c4)C3=O)o2)cc1` (centres unmarked) [Example 135, 4-(1-{1-[5-(4-methoxy-phenyl)-[1,3,4]oxadiazol-2-yl]-ethyl}-4,4-dimethyl-2-oxo-pyrrolidin-3-yloxy)-2-trifluoromethyl-benzonitrile], the IC50 came out at 44 nM.

Turning to `COc1ccccc1CN1CC(C)(C)C(Oc2ccc(C#N)c(C(F)(F)F)c2)C1=O` (centres unmarked) [Example 10, 4-[1-(2-Methoxy-benzyl)-4,4-dimethyl-2-oxo-pyrrolidin-3-yloxy]-2-trifluoromethyl-benzonitrile], the IC50 amounted to 298 nM.

As to `CCCCCN1CC(C)(C)C(Oc2ccc(C#N)c(C(F)(F)F)c2)C1=O` (centres unmarked) [Example 31, 4-(4,4-Dimethyl-2-oxo-1-pentyl-pyrrolidin-3-yloxy)-2-trifluoromethyl-benzonitrile], the half-maximal inhibitory concentration (IC50) came out at 268 nM.

As for `COc1ccccc1-c1nnc(C(C)N2CC(C)(C)C(Oc3ccc(C#N)c(C(F)(F)F)c3)C2=O)o1` (centres unmarked) [Example 133, 4-(1-{1-[5-(2-methoxy-phenyl)-[1,3,4]oxadiazol-2-yl]-ethyl}-4,4-dimethyl-2-oxo-pyrrolidin-3-yloxy)-2-trifluoromethyl-benzonitrile], the IC50 came to 60 nM.

For the compound `COc1ccc(CN2CC(C)(C)C(Oc3ccc(C#N)c(C(F)(F)F)c3)C2=O)cc1` (centres unmarked) [Example 7, 4-[1-(4-Methoxy-benzyl)-4,4-dimethyl-2-oxo-pyrrolidin-3-yloxy]-2-trifluoromethyl-benzonitrile], the IC50 was 298 nM.

On to `CC1(C)CNC(=O)C1Oc1ccc(C#N)c(C(F)(F)F)c1` (single isomer, unassigned; (+)) [Example 3, (+)-4-(4,4-Dimethyl-2-oxo-pyrrolidin-3-yloxy)-2-trifluoromethyl-benzonitrile], for which the IC50 was found to be 435 nM.

For the compound `CCCN1CC(C)(C)[C@H](Oc2ccc(C#N)c(C(F)(F)F)c2)C1=O` [Example 4B, (−)-4-(1-Propyl-4,4-dimethyl-2-oxo-pyrrolidin-3-yloxy)-2-trifluoromethyl-benzonitrile (E1)], the 50% inhibitory concentration (IC50) was greater than 10000 nM.

The experiment is the same for the next values; noted with them: concentration at which one half of maximum binding of 1 nM 3H-DHT to hAR is inhibited; one hour at 4° C.; mean of multiple tests; read-out: IC50.
For `COC(=O)c1ccoc1CN1CC(C)(C)C(Oc2ccc(C#N)c(C(F)(F)F)c2)C1=O` (centres unmarked) [Example 58, 2-[3-(4-Cyano-3-trifluoromethyl-phenoxy)-4,4-dimethyl-2-oxo-pyrrolidin-1-ylmethyl]-furan-3-carboxylic acid methyl ester], the IC50 stood at 313 nM.

As to `CC1(C)CN(Cc2nc(-c3cccc([N+](=O)[O-])c3)no2)C(=O)C1Oc1ccc(C#N)c(C(F)(F)F)c1` (centres unmarked) [Example 67, 4-{4,4-Dimethyl-1-[3-(3-nitro-phenyl)-[1,2,4]oxadiazol-5-ylmethyl]-2-oxo-pyrrolidin-3-yloxy}-2-trifluoromethyl-benzonitrile], the IC50 is 437 nM.

As to `CC1(C)CN(CC2CCCCC2)C(=O)C1Oc1ccc(C#N)c(C(F)(F)F)c1` (centres unmarked) [Example 53, 4-(1-Cyclohexylmethyl-4,4-dimethyl-2-oxo-pyrrolidin-3-yloxy)-2-trifluoromethyl-benzonitrile], the IC50 was 294 nM.

In the case of `Cc1n[nH]c(C)c1S(=O)(=O)N1CC(C)(C)C(Oc2ccc(C#N)c(C(F)(F)F)c2)C1=O` (centres unmarked) [Example 77, 4-[1-(3,5-Dimethyl-1H-pyrazole-4-sulfonyl)-4,4-dimethyl-2-oxo-pyrrolidin-3-yloxy]-2-trifluoromethyl-benzonitrile], the half-maximal inhibitory concentration (IC50) is 246 nM.

Take `CC1(C)CN(Cc2nc(-c3ccc(C4SCCS4)cc3)no2)C(=O)C1Oc1ccc(C#N)c(C(F)(F)F)c1` (centres unmarked) [Example 63, 4-{1-[3-(4-[1,3]Dithiolan-2-yl-phenyl)-[1,2,4]oxadiazol-5-ylmethyl]-4,4-dimethyl-2-oxo-pyrrolidin-3-yloxy}-2-trifluoromethyl-benzonitrile]: the 50% inhibitory concentration (IC50) is 500 nM.

For the compound `CC1(C)CN(Cc2ccc(-n3cncn3)cc2)C(=O)C1Oc1ccc(C#N)c(C(F)(F)F)c1` (centres unmarked) [Example 62, 4-[4,4-Dimethyl-2-oxo-1-(4-[1,2,4]triazol-1-yl-benzyl)-pyrrolidin-3-yloxy]-2-trifluoromethyl-benzonitrile], the IC50 is 293 nM.

As to `CC1(C)CN(S(=O)(=O)c2ccccc2C#N)C(=O)C1Oc1ccc(C#N)c(C(F)(F)F)c1` (centres unmarked) [Example 91, 4-[1-(2-Cyano-benzenesulfonyl)-4,4-dimethyl-2-oxo-pyrrolidin-3-yloxy]-2-trifluoromethyl-benzonitrile], the 50% inhibitory concentration (IC50) was 508 nM.

Turning to `CC1(C)CN(C(=O)c2cccs2)C(=O)C1Oc1ccc(C#N)c(C(F)(F)F)c1` (centres unmarked) [Example 108, 4-[4,4-Dimethyl-2-oxo-1-(thiophene-2-carbonyl)-pyrrolidin-3-yloxy]-2-trifluoromethyl-benzonitrile], the IC50 is 370 nM.

With `Cc1onc(-c2ccccc2)c1CN1CC(C)(C)C(Oc2ccc(C#N)c(C(F)(F)F)c2)C1=O` (centres unmarked) [Example 59, 4-[4,4-Dimethyl-1-(5-methyl-3-phenyl-isoxazol-4-ylmethyl)-2-oxo-pyrrolidin-3-yloxy]-2-trifluoromethyl-benzonitrile], the IC50 was determined as 277 nM.

On to `CC1(C)CN(Cc2ccc(SC(F)(F)F)cc2)C(=O)C1Oc1ccc(C#N)c(C(F)(F)F)c1` (centres unmarked) [Example 36, 4-[4,4-Dimethyl-2-oxo-1-(4-trifluoromethylsulfanyl-benzyl)-pyrrolidin-3-yloxy]-2-trifluoromethyl-benzonitrile], for which the IC50 is 484 nM.

In the case of `Cc1nc(C)c(S(=O)(=O)N2CC(C)(C)C(Oc3ccc(C#N)c(C(F)(F)F)c3)C2=O)s1` (centres unmarked) [Example 89, 4-[1-(2,4-Dimethyl-thiazole-5-sulfonyl)-4,4-dimethyl-2-oxo-pyrrolidin-3-yloxy]-2-trifluoromethyl-benzonitrile], the 50% inhibitory concentration (IC50) was 281 nM.

As for `CC1(C)CN(Cc2cccc(C(=O)O)c2)C(=O)C1Oc1ccc(C#N)c(C(F)(F)F)c1` (centres unmarked) [Example 26, 3-[3-(4-Cyano-3-trifluoromethyl-phenoxy)-4,4-dimethyl-2-oxo-pyrrolidin-1-ylmethyl]-benzoic acid], the half-maximal inhibitory concentration (IC50) is 343 nM.

For the compound `COc1cc(OC2C(=O)N(S(C)(=O)=O)CC2(C)C)ccc1C#N` (centres unmarked) [Example 100D, 4-(1-Methanesulfonyl-4,4-dimethyl-2-oxo-pyrrolidin-3-yloxy)-2-methoxy-benzonitrile], the IC50 was determined as 555 nM.

With `Cn1c(CN2CC(C)(C)C(Oc3ccc(C#N)c(C(F)(F)F)c3)C2=O)nc2ccccc21` (centres unmarked) [Example 55, 4-[4,4-Dimethyl-1-(1-methyl-1H-benzoimidazol-2-ylmethyl)-2-oxo-pyrrolidin-3-yloxy]-2-trifluoromethyl-benzonitrile], the IC50 was 500 nM.

`CC1(C)CN(C2CCC2)C(=O)C1Oc1ccc(C#N)c(C(F)(F)F)c1` (centres unmarked) [Example 100F, 4-(1-Cyclobutyl-4,4-dimethyl-2-oxo-pyrrolidin-3-yloxy)-2-trifluoromethyl-benzonitrile]: the IC50 is 243 nM.

In the case of `CC1(C)CN(CC2CC2)C(=O)C1Oc1ccc(C#N)c(C(F)(F)F)c1` (centres unmarked) [Example 32, 4-(1-Cyclopropylmethyl-4,4-dimethyl-2-oxo-pyrrolidin-3-yloxy)-2-trifluoromethyl-benzonitrile], the IC50 worked out at 420 nM.

As to `CCCCS(=O)(=O)N1CC(C)(C)C(Oc2ccc(C#N)c(C(F)(F)F)c2)C1=O` (centres unmarked) [Example 90, 4-[1-(Butane-1-sulfonyl)-4,4-dimethyl-2-oxo-pyrrolidin-3-yloxy]-2-trifluoromethyl-benzonitrile], the concentration for half-maximal inhibition (IC50) was 309 nM.

As for `CCN1CC(C)(C)C(Oc2ccc(C#N)c(C(F)(F)F)c2)C1=O` (centres unmarked) [Example 21, 4-(1-Ethyl-4,4-dimethyl-2-oxo-pyrrolidin-3-yloxy)-2-trifluoromethyl-benzonitrile], the IC50 was determined as 403 nM.

As to `CC1(C)CN(CC2CCC2)C(=O)C1Oc1ccc(C#N)c(C(F)(F)F)c1` (centres unmarked) [Example 64, 4-(1-Cyclobutylmethyl-4,4-dimethyl-2-oxo-pyrrolidin-3-yloxy)-2-trifluoromethyl-benzonitrile], the 50% inhibitory concentration (IC50) was 254 nM.
